Measurements taken from patent publication US7612104B2, “Bicyclic aryl-sulfonic acid [1,3,4]-thiadiazol-2-yl-amides, processes for their preparation, pharmaceutical compositions and methods for their use” (Sanofi-Aventis, priority 2005, dated 2009).

molecular target: T1, human PPARdelta (Homo sapiens, UniProt Q03181); test: Cellular PPARdelta assay (stably transfected HEK reporter cell line, luciferase); type: cell-based; conditions: GR-GAL4-humanPPARdelta-LBD
T1 construct: amino acids S139-Y441; expressed in transfected cells; host or cells: HEK cells, stably transfected (pcDNA3, CMV promoter)
T1 sequence (Q03181 139-441): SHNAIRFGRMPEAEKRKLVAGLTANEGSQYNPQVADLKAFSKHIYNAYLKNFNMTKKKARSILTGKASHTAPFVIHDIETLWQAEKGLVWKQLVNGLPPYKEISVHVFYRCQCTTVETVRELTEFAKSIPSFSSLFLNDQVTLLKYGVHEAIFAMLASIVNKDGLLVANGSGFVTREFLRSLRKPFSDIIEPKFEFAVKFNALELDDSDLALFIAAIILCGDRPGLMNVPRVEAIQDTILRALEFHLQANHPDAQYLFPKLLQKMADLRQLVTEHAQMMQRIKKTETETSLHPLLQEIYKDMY
Method: The activity of PPARalpha agonists is determined in a 3-day assay which is described below:
The PPARalpha reporter cell line is cultivated to 80% confluence in DMEM (#41965-039, Invitrogen) which is mixed with the following additions: 10% cs-FCS (fetal calf serum; #SH-30068.03, Hyclone), 0.5 mg/ml zeocin (#R250-01, Invitrogen), 0.5 mg/ml G418 (#10131-027, Invitrogen), 1% penicillin-streptomycin solution (#15140-122, Invitrogen) and 2 mM L-glutamine (#25030-024, Invitrogen). The cultivation takes place in standard cell culture bottles (#353112, Becton Dickinson) in a cell culture incubator at 37° C. in the presence of 5% CO2. The 80%-confluent cells are washed once with 15 ml of PBS (#14190-094, Invitrogen), treated with 3 ml of trypsin solution (#25300-054, Invitrogen) at 37° C. for 2 min, taken up in 5 ml of the DMEM described and counted in a cell counter. After dilution to 500.000 cells/ml, 35,000 cells are seeded in each well of a 96 well microtiter plate with a clear plastic base (#3610, Corning Costar). The plates are incubated in the cell culture incubator at 37° C. and 5% CO2 for 24 h.
PPARalpha agonists to be tested are dissolved in DMSO in a concentration of 10 mM. This stock solution is diluted in DMEM (#41965-039, Invitrogen) which is mixed with 5% cs-FCS (#SH-30068.03, Hyclone), 2 mM L-glutamine (#25030-024, Invitrogen) and the previously described antibiotics (zeocin, G418, penicillin and streptomycin). Test substances are tested in 11 different concentrations in the range from 10 μM to 100 pM.
The medium of the PPARalpha reporter cell line seeded on day 1 is completely removed by aspiration, and the test substances diluted in medium are immediately added to the cells. The dilution and addition of the substances is carried out by a robot (Beckman FX). The final volume of the test substances diluted in medium is 100 μl per well of a 96 well microtiter plate. The DMSO concentration in the assay is less than 0.1% v/v in order to avoid cytotoxic effects of the solvent.
The assay plates are incubated in an incubator at 37° C. and 5% CO2 for 24 h.
The PPARalpha reporter cells treated with the test substances are removed from the incubator, and the medium is aspirated off. The cells are lyzed by pipetting 50 μl of Bright Glo reagent (from Promega) into each well of a 96 well microtiter plate. After incubation at room temperature in the dark for 10 minutes, the microtiter plates are measured in the luminometer (Trilux from Wallac). The measuring time for each well of a microtiter plate is 1 sec.
The raw data from the luminometer are transferred into a Microsoft Excel file. Dose-effect plots and EC50 values of PPAR agonists are calculated using the XL.Fit program as specified by the manufacturer (IDBS).
The potency of substances which bind to human PPARdelta and activate it in an agonistic manner is analyzed using a stably transfected HEK cell line (HEK=human embryo kidney) which is referred to here as PPARdelta reporter cell line. In analogy to the assay described for PPARalpha, the PPARdelta reporter cell line also contains two genetic elements, a luciferase reporter element (pdeltaM-GAL4-Luc-Zeo) and a PPARdelta fusion protein (GR-GAL4-humanPPARdelta-LBD) which mediates expression of the luciferase reporter element depending on a PPARdelta ligand. The stably and constitutively expressed fusion protein GR-GAL4-humanPPARdelta-LBD binds in the cell nucleus of the PPARdelta reporter cell line via the GAL4 protein portion to the GAL4 DNA binding motifs 5′-upstream of the luciferase reporter element which is stably integrated in the genome of the cell line. There is only little expression of the luciferase reporter gene in the absence of a PPARdelta ligand if fatty acid-depleted fetal calf serum (cs-FCS) is used in the assay. PPARdelta ligands bind and activate the PPARdelta fusion protein and thereby stimulate expression of the luciferase reporter gene. […]

Q: How did the EC50 turn out when `CCOc1cc(C(F)(F)F)ccc1C(=O)N[C@H]1CCc2ccc(S(=O)(=O)Nc3nnc(C(C)C)s3)cc2C1` [Example 5, 2-Ethoxy-N-[(S)-7-(5-isopropyl-[1,3,4]thiadiazol-2-ylsulfamoyl)-1,2,3,4-tetrahydro-naphthalen-2-yl]-4-trifluoromethyl-benzamide] was run?
A: The EC50 was 600 nM.

Q: For `CCOc1cc(C(F)(F)F)ccc1C(=O)NC1Cc2ccc(S(=O)(=O)Nc3nnc(C(C)C)s3)cc2C1` (single isomer, unassigned; enantiomer 2) [Example 1.2, 2-Ethoxy-N-[5-(5-isopropyl-[1,3,4]thiadiazol-2-ylsulfamoyl)-indan-2-yl]-4-trifluoromethyl-benzamide (Enantiomer 2)], which EC50 is on record?
A: The EC50 was 50 nM.

Q: `CCOc1cc(C(F)(F)F)ccc1C(=O)NC1Cc2ccc(S(=O)(=O)Nc3nnc(C(C)C)s3)cc2C1` (single isomer, unassigned; enantiomer 1) [Example 1.1, 2-Ethoxy-N-[5-(5-isopropyl-[1,3,4]thiadiazol-2-ylsulfamoyl)-indan-2-yl]-4-trifluoromethyl-benzamide (Enantiomer 1)] was tested. Which EC50 did it give?
A: Its EC50 is 1 nM.

Q: With `CCOc1cc(C(F)(F)F)ccc1C(=O)NC1Cc2ccc(S(=O)(=O)Nc3nnc(C(C)C)s3)cc2C1` (racemic) [Example 1, 2-Ethoxy-N-[5-(5-isopropyl-[1,3,4]thiadiazol-2-ylsulfamoyl)-indan-2-yl]-4-trifluoromethyl-benzamide] as the molecule, how does the EC50 read?
A: The EC50 was 1 nM.

Q: `CCOc1cc(C(F)(F)F)sc1C(=O)NC1Cc2ccc(S(=O)(=O)Nc3nnc(C(C)C)s3)cc2C1` (stereo not drawn) [Example 11, 3-Ethoxy-5-trifluoromethyl-thiophene-2-carboxylic acid [5-(5-isopropyl-[1,3,4]thiadiazol-2-ylsulfamoyl)-indan-2-yl]-amide] was tested. Which EC50 did it give?
A: The EC50 was 1 nM.

Q: `CCOc1cc(C(F)(F)F)ccc1C(=O)N[C@@H]1CCc2ccc(S(=O)(=O)Nc3nnc(C(C)C)s3)cc2C1` [Example 6, 2-Ethoxi-N-[(R)-7-(5-isopropyl-[1,3,4]thiadiazol-2-ylsulfamoyl)-1,2,3,4-tetrahydro-naphthalene-2-yl]-4-trifluoromethyl-benzamide] was tested. Which EC50 did it give?
A: Its EC50 is 600 nM.
